Experimental data as given in the NIST ThermoML archive (doi:10.1021/je500424b).
± gives the expanded uncertainty stated by the source.

Details: Gas, Cylindrical cavity resonance method

C=CC [propene]
Details | speed of sound [m/s]
260 K, 164.45 kPa | 238.03 ± 0.071
260 K, 185.32 kPa | 237.15 ± 0.071
260 K, 206.56 kPa | 236.23 ± 0.071
260 K, 227.97 kPa | 235.29 ± 0.071
260 K, 248.96 kPa | 234.36 ± 0.071
260 K, 275.35 kPa | 233.17 ± 0.071
260 K, 293.11 kPa | 232.48 ± 0.07
270 K, 144.04 kPa | 243.6 ± 0.072
270 K, 173.01 kPa | 242.51 ± 0.071
270 K, 206.19 kPa | 241.23 ± 0.071
270 K, 236.28 kPa | 240.06 ± 0.071
270 K, 262.89 kPa | 239 ± 0.071
270 K, 263.03 kPa | 239 ± 0.071
270 K, 302.89 kPa | 237.39 ± 0.071
270 K, 333.53 kPa | 236.13 ± 0.071
270 K, 361.31 kPa | 234.96 ± 0.071
270 K, 389.41 kPa | 233.76 ± 0.071
280 K, 149.29 kPa | 247.97 ± 0.072
280 K, 188.35 kPa | 246.64 ± 0.072
280 K, 226.29 kPa | 245.31 ± 0.072
280 K, 267.79 kPa | 243.84 ± 0.071
280 K, 308.73 kPa | 242.37 ± 0.071
280 K, 354.13 kPa | 240.69 ± 0.071
280 K, 397.57 kPa | 239.06 ± 0.071
280 K, 438.3 kPa | 237.49 ± 0.071
280 K, 438.33 kPa | 237.49 ± 0.071
280 K, 478.89 kPa | 235.89 ± 0.071
280 K, 519.72 kPa | 234.24 ± 0.071
280 K, 556.25 kPa | 232.73 ± 0.071
290 K, 141.01 kPa | 252.63 ± 0.072
290 K, 199.13 kPa | 250.82 ± 0.072
290 K, 257.68 kPa | 248.96 ± 0.072
290 K, 313.39 kPa | 247.15 ± 0.072
290 K, 372.8 kPa | 245.18 ± 0.071
290 K, 434.96 kPa | 243.06 ± 0.071
290 K, 495.22 kPa | 240.95 ± 0.071
290 K, 553.22 kPa | 238.87 ± 0.071
290 K, 616.94 kPa | 236.51 ± 0.071
290 K, 672.07 kPa | 234.4 ± 0.071
290 K, 677.98 kPa | 234.17 ± 0.071
290 K, 695.54 kPa | 233.48 ± 0.07
300 K, 134.71 kPa | 257.09 ± 0.073
300 K, 182.3 kPa | 255.75 ± 0.073
300 K, 260.81 kPa | 253.49 ± 0.072
300 K, 344.4 kPa | 251.01 ± 0.072
300 K, 425.25 kPa | 248.56 ± 0.072
300 K, 505.72 kPa | 246.04 ± 0.071
300 K, 582.66 kPa | 243.56 ± 0.071
300 K, 661.1 kPa | 240.94 ± 0.071
300 K, 740.35 kPa | 238.22 ± 0.071
300 K, 826.4 kPa | 235.15 ± 0.07
300 K, 903.31 kPa | 232.29 ± 0.07
300 K, 960.98 kPa | 230.07 ± 0.07
310 K, 142.07 kPa | 261.05 ± 0.073
310 K, 235.24 kPa | 258.61 ± 0.073
310 K, 325.91 kPa | 256.18 ± 0.073
310 K, 424.89 kPa | 253.46 ± 0.072
310 K, 520.89 kPa | 250.75 ± 0.072
310 K, 623.06 kPa | 247.76 ± 0.072
310 K, 713.38 kPa | 245.04 ± 0.071
310 K, 810.73 kPa | 242.01 ± 0.071
310 K, 906.76 kPa | 238.9 ± 0.071
310 K, 952.69 kPa | 237.37 ± 0.071
320 K, 142.67 kPa | 265.1 ± 0.074
320 K, 210.07 kPa | 263.49 ± 0.073
320 K, 279.66 kPa | 261.81 ± 0.073
320 K, 349.85 kPa | 260.08 ± 0.073
320 K, 425.07 kPa | 258.19 ± 0.073
320 K, 509.07 kPa | 256.04 ± 0.072
320 K, 596.12 kPa | 253.77 ± 0.072
320 K, 677.09 kPa | 251.6 ± 0.072
320 K, 756.59 kPa | 249.42 ± 0.072
320 K, 834.83 kPa | 247.22 ± 0.071
320 K, 905.02 kPa | 245.21 ± 0.071
320 K, 976.94 kPa | 243.09 ± 0.071
330 K, 151.93 kPa | 268.88 ± 0.074
330 K, 227.66 kPa | 267.22 ± 0.074
330 K, 302.35 kPa | 265.55 ± 0.074
330 K, 380.89 kPa | 263.77 ± 0.073
330 K, 455.62 kPa | 262.04 ± 0.073
330 K, 550.82 kPa | 259.81 ± 0.073
330 K, 642.65 kPa | 257.6 ± 0.073
330 K, 732.74 kPa | 255.39 ± 0.072
330 K, 821.61 kPa | 253.16 ± 0.072
330 K, 912.04 kPa | 250.84 ± 0.072
330 K, 1001.4 kPa | 248.5 ± 0.072
